# Test results as given in US11801242B2, “Compositions and methods for adjuvant cancer therapeutics” (DUKE UNIVERSITY, priority 2018, dated 2023).
# Tests used:
# [1] = target: T1, chimeric REV1 CTD protein (Mus musculus, UniProt Q920Q2); test: Isothermal titration calorimetry; type: binding; settings: 25° C.
# T1 construct: the mouse REV1 CTD (F1150-T1249); His10-GB1 (TEV site) (N, cleaved yes); made in house; host or cells: E. coli BL21 Star (DE3)
# T1 sequence (Q920Q2 1150-1249): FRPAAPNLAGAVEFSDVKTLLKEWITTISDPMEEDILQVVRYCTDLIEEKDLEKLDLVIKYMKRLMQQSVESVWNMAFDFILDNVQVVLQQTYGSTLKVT
# Description: Isothermal titration calorimetry measurements were carried out using a MicroCal VP-ITC instrument at 25° C., with the chimeric REV1 CTD protein (300 μM) in the syringe and compound (15 μM) in the cell. Compounds were initially dissolved in 50% MPD. Protein and compound samples were diluted in a buffer containing 50 mM HEPES pH 7.5, 50 mM KCl, 2 mM TCEP, 2% DMSO and 0.1% MPD. Microcal Origin 7 software was used to analyze the data.
# [2] = test system: REV1 CTD-REV7 interaction; test: ELISA assay probing the REV1 CTD-REV7 interaction; type: binding, mouse; settings: ratio of test compound IC50 to RE01 IC50
# Description: The ELISA assay for probing the REV1 CTD-REV7 interaction was carried out by immobilizing 50 nM His8-tagged REV7/3 in 200 μL phosphate-buffered saline (PBS, Gibco) containing 0.2% BSA in a Ni-NTA coated 96-well plate (HisSorb, Qiagen) for 30 minutes. Unbound His8-tagged REV7/3 was removed by washing the wells four times with PBS containing 0.05% Tween-20. […] After incubation for 30 minutes, the wells were washed four times with PBS containing 0.05% Tween-20 to remove the unbound FLAG-tagged POL κ RIR-REV1 CTD. A solution of the anti-FLAG horseradish peroxidase (HRP)-conjugated antibody (Sigma-Aldrich) in PBS containing 0.2% BSA was then added to the wells. After incubating for 1 hour, the antibody was washed off four times with PBS containing 0.05% Tween-20. The 3,3′,5,5′-tetramethylbenzedine (TMB) substrate (SureBlue TMB, Seracare) was added to the wells. After incubation of 20-30 minutes, the reaction was quenched with 1 M HCl. A SpectraMax plate reader (Molecular Devices) was used to measure absorbance at 450 nm.
# A375 cells = test: qRT-PCR of p21 mRNA; type: cell-based, human; settings: cisplatin 1 μM alone
# Description: Total RNA was isolated by using the RNeasy Mini kit (Qiagen) from cells treated with RE01 (1.5 μM), cisplatin (1 μM) and a combination of both RE01 (1.5 μM) and cisplatin (1 μM). 5 ng of RNA from each sample was mixed with 10 μl of Applied Biosystems™ PowerUp™ SYBR™ Green Master Mix (ThermoFisher), 1 μl of MultiScribe™ Reverse Transcriptase (ThermoFisher), 0.1 μl of RNaseOUT™ Recombinant Ribonuclease Inhibitor and 5.9 μl of RNase-free water, and run in a one-step qRT-PCR reaction. Each reaction was run in triplicate. Primers used were: p21 F 5′-[…]-3′ (SEQ ID NO: 9), p21 R 5-CGGCGTTTGGAGTGG TAGAAA-3′ (SEQ ID NO: 10); GAPDH F 5′-[…]-3′ (SEQ ID NO: 11), GAPDH R 5′-[…]-3′ (SEQ ID NO: 12).
Structure (SMILES),Relative IC50 Ratio [2],other results
"CC(C)CC(=O)c1c(N2CCOCC2)[nH]c2c(Cl)ccc([N+](=O)[O-])c2c1=O [RE07, 8-chloro-3-(3-methylbutanoyl)-2-morpholino-5-nitroquinolin-4(1H)-one]",–,REV1 CTD binding [1]: abolished the REV1 CTD binding
"CC(C)CC(=O)c1c(Nc2ccc(Cl)cc2Cl)[nH]c2cc([N+](=O)[O-])ccc2c1=O [RE35, 2-((2,4-dichlorophenyl)amino)-3-(3-methylbutanoyl)-7-nitroquinolin-4(1H)-one]",A (A represents a ratio of test compound IC50 to RE01 IC50 of less than 0.8),–
"Cc1ccc([N+](=O)[O-])c2c(=O)c(C(=O)CC(C)C)c(Nc3ccc(Cl)cc3Cl)[nH]c12 [RE36, 2-((2,4-dichlorophenyl)amino)-8-methyl-3-(3-methylbutanoyl)-5-nitroquinolin-4(1H)-one]",C (C represents a ratio of test compound IC50 to RE01 IC50 between 1.5-10),–
"COc1ccc([N+](=O)[O-])c2c(=O)c(C(=O)CC(C)C)c(Nc3ccc(Cl)cc3Cl)[nH]c12 [RE37, 2-((2,4-dichlorophenyl)amino)-8-methoxy-3-(3-methylbutanoyl)-5-nitroquinolin-4(1H)-one]",C (C represents a ratio of test compound IC50 to RE01 IC50 between 1.5-10),–
"CC(C)CC(=O)c1c(Nc2ccc(Cl)cc2Cl)[nH]c2c(F)ccc([N+](=O)[O-])c2c1=O [RE38, 2-((2,4-dichlorophenyl)amino)-8-fluoro-3-(3-methylbutanoyl)-5-nitroquinolin-4(1H)-one]",B (B represents a ratio of test compound IC50 so to RE1 IC50 between 0.8 and 1.5),–
"CC(C)CC(=O)c1c(Nc2ccc(Cl)cc2Cl)[nH]c2c(Br)ccc([N+](=O)[O-])c2c1=O [RE39, 8-bromo-2-((2,4-dichlorophenyl)amino)-3-(3-methylbutanoyl)-5-nitroquinolin-4(1H)-one]",B (B represents a ratio of test compound IC50 so to RE1 IC50 between 0.8 and 1.5),–
"N.N.[Cl][Pt][Cl] [cisplatin, cis-diammineplatinum(II) dichloride, reference compound]",–,levels of the p21 biomarker (A375 cells): elevated levels
